In patent publication US9168286B2, “Methods and compositions for use in treatment of patients with autoantibody positive disease” (Human Genome Sciences, Inc., priority 2005, dated 2015):

What was measured:
subjects with SLE [1] = assay: Phase 2 clinical trial of belimumab in SLE with 24-week extension and continuation trial: disease activity (SELENA SLEDAI, SLE Flare Index, PGA, BILAG, SF-36); format: in vivo, human
Description: Further, response rates among the treatment groups in the trial were also analyzed using a combined response endpoint (row 1), which combined a measure of global disease activity as measured by the SS score, with a measure of a patient's overall condition as assessed by the PGA disease activity index and a measure of disease in specific organ systems as measured by the BILAG scale.
Serum autoantibodies, Ig isotypes and complement (C3, C4) were measured at 1-3 month intervals. […]

subjects with SLE [2] = assay: Phase 2 clinical trial of belimumab in SLE with extension and continuation trial: biologic markers (B cells, autoantibodies, Ig isotypes, C3/C4); format: in vivo, human; set-up: median percent change in CD20+ B cells (reduction) / median percent change in plasmacytoid B cells (CD20+/CD138+) (reduction) / median percent change in activated B cells (CD20+/CD69+) (reduction) / percent of subjects with significant anti-dsDNA reduction / IgE reduction: concentration or dose not given beside the values; settings: for percent of subjects with significant anti-dsDNA reduction: clinical responders
Description: Of the patients who completed 52 weeks of treatment in the randomized, double-blind, placebo-controlled Phase 2 trial (see example 1), 96% (351/364) elected to enter the 24-week extension phase of the trial, and 92% (321/351) of those who entered completed it.
Serum autoantibodies, Ig isotypes and complement (C3, C4) were measured at 1-3 month intervals. In addition, the population with baseline serologic activity (ANA ≧1:80 or anti-dsDNA Ab ≧30IU; 72% of the original cohort herein called seropositive patients or seropositive subjects) was evaluated for SS, physician global assessment (PGA 0-3 units), BILAG, […] Functional Index (SFI) and autoantibody status at 1-3 month intervals.

[3] = ANA+ subjects, week 52, 1.0 mg/kg, N = 78
[4] = ANA+ subjects, week 52, 4.0 mg/kg, N = 79
[5] = ANA+ subjects, week 52, 10.0 mg/kg, N = 78
[6] = each measurement during weeks 8-52, p<0.01

belimumab: an antibody that neutralizes Neutrokine-alpha protein
dose response in efficacy (subjects with SLE [1]; 1, 4, 10 mg/kg): no dose response in efficacy
mean percent change from baseline PGA (subjects with SLE [1]; ANA+ subjects vs ANA+ placebo, as early as week 4, also weeks 8, 16, 48 (p<0.05), 52 (p<0.01)): significant improvement
mean SF-36 Physical Component Score (SF-36 PCS) (subjects with SLE [1]; ANA+ subjects vs ANA+ placebo, weeks 12, 24, 48, 52, p<0.05): significant improvements
frequency of increase in prednisone from ≦[…] to >[…] (subjects with SLE [1]; ANA+ subjects, as early as week 8, p<0.05 over weeks 8-12 and 32-40): significant reduction
combined response endpoint (SS, PGA, BILAG) (subjects with SLE [1]; ANA+ subjects, p=0.0058): significant response
% of subjects with no worsening by PGA (<0.3 point increase from baseline) (subjects with SLE [1]; [3]): (89.7%)
% of subjects with reduction in SELENA SLEDAI ≧4 (subjects with SLE [1]; [3]): (52.6%)
subjects with no worsening by PGA (<0.3 point increase from baseline), number (subjects with SLE [1]; [3]): 70
subjects with reduction in SELENA SLEDAI ≧4, number (subjects with SLE [1]; [3]): 41
% of subjects with no worsening by PGA (<0.3 point increase from baseline) (subjects with SLE [1]; [4]): (88.6%)
% of subjects with reduction in SELENA SLEDAI ≧4 (subjects with SLE [1]; [4]): (48.1%)
subjects with no worsening by PGA (<0.3 point increase from baseline), number (subjects with SLE [1]; [4]): 70
subjects with reduction in SELENA SLEDAI ≧4, number (subjects with SLE [1]; [4]): 38
% of subjects with no worsening by PGA (<0.3 point increase from baseline) (subjects with SLE [1]; [5]): (92.3%)
% of subjects with reduction in SELENA SLEDAI ≧4 (subjects with SLE [1]; [5]): (47.4%)
subjects with no worsening by PGA (<0.3 point increase from baseline), number (subjects with SLE [1]; [5]): 72
subjects with reduction in SELENA SLEDAI ≧4, number (subjects with SLE [1]; [5]): 37
subjects with no worsening by PGA (<0.3 point increase from baseline), number (subjects with SLE [1]; ANA+ subjects, week 52, All Active, N = 235, P 0.0027 vs placebo): 212
% of subjects with no worsening by PGA (<0.3 point increase from baseline) (subjects with SLE [1]; ANA+ subjects, week 52, All Active, N = 235, P 0.0027 vs placebo (76.7%)): (90.2%)
subjects with reduction in SELENA SLEDAI ≧4, number (subjects with SLE [1]; ANA+ subjects, week 52, All Active, N = 235, P 0.1169 vs placebo): 116
increases in BILAG organ domain score: musculoskeletal (subjects with SLE [1]; ANA+ subjects, week 52, p<0.008): fewer increases in score
increases in BILAG organ domain score: neurological (subjects with SLE [1]; ANA+ subjects, week 52, p<0.038): fewer increases in score
increases in BILAG organ domain score: general (subjects with SLE [1]; ANA+ subjects, week 52, p<0.15): trend toward fewer increases in score
increases in BILAG organ domain score: renal (subjects with SLE [1]; ANA+ subjects, week 52, p<0.15): trend toward fewer increases in score
reduction in SELENA SLEDAI (SS) score (subjects with SLE [1]; ANA+ subjects, week 52, p=0.0435): 29%
increases in BILAG organ domain score: cardiovascular & respiratory (subjects with SLE [1]; ANA+ subjects, week 52, p=0.060): trend toward fewer increases in score
subjects with increases of prednisone to >[…] (subjects with SLE [1]; belimumab-treated, placebo ~15%): ~7%
PGA score (subjects with SLE [1]; by week 16 (p=0.016) through week 52 (p<0.002), all active vs. placebo): improved
dosage of prednisone necessary to ameliorate disease manifestations (subjects with SLE [1]; lupus patients, IV days 0, 14, 28 then every four weeks until week 52): effective in reducing the dosage of the corticosteroid prednisone
symptoms associated with lupus (subjects with SLE [1]; patients with ANA titer 1:80 or greater and/or ≧30 IU/mL anti-dsDNA, IV days 0, 14, 28 then every four weeks until week 52): significantly ameliorated symptoms associated with lupus
combined response rate (subjects with SLE [1]; seropositive subjects (n=175) who completed 128 weeks): 63%
combined response rate (subjects with SLE [1]; seropositive subjects (n=321), all belimumab treatment groups combined, week 56, placebo 35%, p<0.05): 49%
SLE flare rate (SFI), percent of subjects with at least one flare (subjects with SLE [1]; seropositive subjects, fifth six-month interval): 33%
SLE flare rate (SFI), percent of subjects with at least one flare (subjects with SLE [1]; seropositive subjects, first six-month interval, placebo 76%): 72%
SLE flare rate (SFI), percent of subjects with at least one flare (subjects with SLE [1]; seropositive subjects, fourth six-month interval): 30%
SLE flare rate (SFI), percent of subjects with at least one flare (subjects with SLE [1]; seropositive subjects, second six-month interval, placebo 73%): 61%
SLE flare rate (SFI), percent of subjects with at least one flare (subjects with SLE [1]; seropositive subjects, third six-month interval): 57%
combined response rate (subjects with SLE [1]; seropositive subjects, weeks 76-128 of continuous therapy (ITT analysis)): 55%
combined response rate (subjects with SLE [1]; subjects with baseline Anti-dsDNA autoantibodies, week 52): 47%
combined response rate (subjects with SLE [1]; subjects with baseline Anti-dsDNA autoantibodies, week 128): 53%
combined response rate (subjects with SLE [1]; subjects with baseline RNP autoantibodies, week 52): 42%
combined response rate (subjects with SLE [1]; subjects with baseline RNP autoantibodies, week 128): 52%
combined response rate (subjects with SLE [1]; subjects with baseline Ro autoantibodies, week 52): 41%
combined response rate (subjects with SLE [1]; subjects with baseline Ro autoantibodies, week 128): 51%
combined response rate (subjects with SLE [1]; subjects with baseline aCl autoantibodies, week 52): 51%
combined response rate (subjects with SLE [1]; subjects with baseline aCl autoantibodies, week 128): 51%
composite numerical BILAG scores (subjects with SLE [1]; vs. placebo): no significant differences
percent of seropositive subjects with new 1A or 2B BILAG flares (subjects with SLE [1]; week 52, placebo 19%, p=0.0152): 9%
seropositive subjects with worsening PGA scores (subjects with SLE [1]; week 52, placebo 23%, p=0.0027): 10%
percent of seropositive subjects with SS>4 point improvement (subjects with SLE [1]; weeks 76-128): 58-60%
percent of seropositive subjects with new 1A or 2B BILAG flares (subjects with SLE [1]; weeks 96-128): 6-7%
seropositive subjects with worsening PGA scores (subjects with SLE [1]; weeks 96-128): 7-9%
subjects with elevated Ig isotype levels at baseline returned to normal Ig isotype levels (subjects with SLE [2]; 52/128, p=0.0014, control 16% (7/45)): 41%
decrease of anti-dsDNA levels (subjects with SLE [2]; anti-dsDNA+ at baseline, weeks 52-128, placebo week 52=9%): 29-44%
serum IgG, IgA, IgE and IgM levels, median percent change from baseline (subjects with SLE [2]; as early as week 8, p<0.0001 vs placebo): Significant belimumab-induced reductions
time at which maximal median reductions of each Ig isotype were reached (subjects with SLE [2]; belimumab-treated subjects): 8-24 weeks
percent of subjects with significant anti-dsDNA reduction (subjects with SLE [2]; week 52): 35%
percent of subjects with significant anti-dsDNA reduction (subjects with SLE [2]; week 128): 56%
CD19+ B cell counts, median percent change from baseline (subjects with SLE [2]; [6]): Significant reductions
activated B cell (CD20+/CD69+) counts, median percent change from baseline (subjects with SLE [2]; [6]): Significant reductions
naïve B cell (CD20+/CD27−) counts, median percent change from baseline (subjects with SLE [2]; [6]): Significant reductions
plasmacytoid B cell (CD20+/CD138+) counts, median percent change from baseline (subjects with SLE [2]; each measurement during weeks 16-52, p<0.01): Significant reductions
increase of C3 (subjects with SLE [2]; low baseline C3 (n=135), week 52, placebo −1%): 6%
increase of C3 (subjects with SLE [2]; low baseline C3, week 76): 10%
increase of C3 (subjects with SLE [2]; low baseline C3, week 96): 15%
